Assay results: patent US20110045101A1, “FUNGICIDAL SUBSTITUTED AZOLES” (E.I. Du Pont De Nemours and Company, priority 2009, published 2011)
Marks after values point to notes of the source that are not given here.

Assays:
Type in all cases: in vivo
Conditions in all cases: 100 = 100% disease control
[1] = test system: Erysiphe graminis f. sp. tritici; test: Test J: wheat powdery mildew on wheat seedlings, sprayed the day before inoculation, visual disease rating
Procedure, shortened: (§1)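 Ratings reflect a 200 ppm spray (≈500 g/ha) unless marked as 40 ppm. Plants were sprayed to run-off. The spray suspension was acetone/purified water 50/50 containing 250 ppm Trem 014, after first dissolving compound in acetone at 3% of final volume.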

[2] = test system: Septoria nodorum; test: Test F: wheat glume blotch on wheat seedlings, sprayed the day before inoculation, visual disease rating
Procedure, shortened: as §1

[3] = test system: Alternaria solani; test: Test D: tomato early blight, sprayed the day before inoculation, visual disease rating
Procedure, shortened: as §1

[4] = test system: Septoria tritici; test: Test G: wheat leaf blotch on wheat seedlings, sprayed the day before inoculation, visual disease rating
Procedure, shortened: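 Disease was rated visually after Septoria tritici inoculation, 48 h saturated incubation at 24°C and 19 days in a 20°C growth chamber. Inoculation followed one day after run-off spraying of seedlings with compound at 200 ppm (≈500 g/ha) or, where marked, 40 ppm, formulated in acetone/water with surfactant.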

[5] = test system: Botrytis cinerea; test: Test C: tomato Botrytis on tomato seedlings, sprayed the day before inoculation, visual disease rating
Procedure, shortened: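 Disease scored by eye on tomato seedlings inoculated with Botrytis cinerea a day after treatment. Treatment was a run-off spray at 200 ppm (equivalent to 500 g/ha), or 40 ppm where marked, in acetone/water carrying 250 ppm Trem 014.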

[6] = test system: Puccinia recondita f. sp. tritici; test: Test I: wheat leaf rust on wheat seedlings, sprayed the day before inoculation, visual disease rating
Procedure, shortened: as §1

[7] = 200 ppm, 0 = no control relative to controls
[8] = 40 ppm (marked *), 0 = no control

Structure (SMILES)	Test J disease control rating [1, 7]	Test F disease control rating [2, 7]	Test D disease control rating [3, 7]	Test G disease control rating [4, 7]	Test C disease control rating [5, 7]	Test I disease control rating [6, 7]	Test J disease control rating ([1]; 200 ppm, 0 = no control)	Test F disease control rating ([2]; 200 ppm, 0 = no control)	Test D disease control rating ([3]; 200 ppm, 0 = no control)	Test G disease control rating ([4]; 200 ppm, 0 = no control)	Test C disease control rating ([5]; 200 ppm, 0 = no control)	Test I disease control rating ([6]; 200 ppm, 0 = no control)	also measured
Fc1ccc(F)c(-c2c(Cl)nc(Br)n2-c2ccc(Cl)cc2)c1Cl [compound 76]	100%	60%	99%	97%	37%	99%							
COc1ccc(F)c(-c2c(Cl)nc(Br)n2-c2ccc(I)cc2)c1F [compound 443]	100%	99%	99%	97%	99%	89%							
Fc1ccc(-n2c(Br)nc(Cl)c2-c2ccc(F)cc2Cl)cc1 [compound 182]							99%	73%	100%	96%	99%	97%	
Fc1cccc(F)c1-n1c(Br)nc(Br)c1-c1ccc(Cl)cc1 [compound 162]													Test J disease control rating [1, 8]: 94* %; Test F disease control rating [2, 8]: 0* %; Test D disease control rating [3, 8]: 97* %; Test G disease control rating [4, 8]: 93* %; Test C disease control rating [5, 8]: 88* %; Test I disease control rating [6, 8]: 23* %
Fc1cc(-n2c(Cl)nc(CCl)c2-c2ccccc2F)ccc1Cl [compound 259]							93%	0%	16%	63%	99%	82%	
Cc1ccc(-n2c(C)nc(Cl)c2-c2c(F)cc(F)cc2F)cc1 [compound 168]							100%	84%	99%	98%	97%	100%	
COc1ccc(-c2c(Cl)nc(C)n2-c2ccc(Cl)cc2)c(F)c1C [compound 114]	72%	0%	0%	95%	93%	41%							
Cc1nn(C)c(-c2c(F)cc(F)cc2F)c1-c1ccc(Cl)cc1 [compound 69]	97%	0%	99%	25%	74%	0%							
Cc1nc(Cl)c(-c2c(F)cccc2F)n1-c1cccc(Cl)c1 [compound 236]							100%	99%	100%	96%	100%	100%	
COc1cc(F)c(-c2c(Cl)nc(Cl)n2-c2ccc(Cl)c(F)c2)c(F)c1 [compound 240]							100%	100%	100%	97%	100%	100%	
COc1ccc(F)c(-c2c(Cl)nc(Cl)n2-c2cccc(F)c2)c1F [compound 279]							100%	100%	100%	93%	100%	100%	
COc1ccc(-c2c(Cl)nc(C)n2-c2ccc(Cl)cc2)c(F)c1 [compound 113]	97%	97%	99%	95%	98%	97%							
COc1cc(Cl)cc(F)c1-c1c(Cl)nc(C)n1-c1ccc(Cl)cc1 [compound 149]							95%	98%	0%	96%	53%	95%	
Cc1nc(Cl)c(-c2ccc(F)cc2Cl)n1-c1ccc(F)cc1 [compound 187]							100%	94%	100%	97%	99%	100%	
Fc1ccc(-n2cnc(Cl)c2-c2c(F)cc(F)cc2F)cc1 [compound 137]	97%	0%	100%	98%	94%	55%							
Fc1ccc(-c2c(Cl)nc(Br)n2-c2ccc(Cl)cc2)c(Cl)c1 [compound 51]	99%	100%	100%	94%	94%	97%							
COc1cc(Cl)cc(F)c1-c1c(Cl)ncn1-c1ccc(Cl)cc1 [compound 133]	0%	0%	0%	0%	0%	0%							
COc1cc(F)c(-c2c(Cl)ncn2-c2ccc(F)cc2)c(F)c1 [compound 136]	100%	99%	100%	96%	99%	100%							
Fc1cc(-n2cnc(Cl)c2-c2c(F)ccc(F)c2F)ccc1Cl [compound 124]	98%	0%	97%	90%	98%	95%							
CCc1ccc(-n2c(Cl)nc(Cl)c2-c2c(F)ccc(OC)c2F)cc1 [compound 442]	100%	0%	99%	95%	99%	99%							
Cc1nc(Cl)c(-c2c(F)ccc(F)c2F)n1-c1ccc(Cl)cc1 [compound 48]	100%	100%	100%	94%	99%	100%							
Fc1ccc(-n2cnc(Cl)c2-c2c(F)ccc(F)c2Cl)cc1 [compound 176]							99%	0%	91%	87%	96%	99%	
Cn1nc(Br)c(-c2c(F)cc(F)cc2F)c1-c1ccc(Cl)cc1 [compound 166]							100%	40%	97%	96%	96%	91%	
Fc1cc(-n2c(Br)nc(Cl)c2-c2c(F)ccc(F)c2Cl)ccc1Cl [compound 219]							99%	51%	97%	96%	98%	99%	
COc1cc(F)c(-c2c(Cl)nc(C)n2-c2ccc(C)cc2)c(F)c1 [compound 159]							100%	99%	100%	97%	99%	100%	
Fc1ccc(-c2c(Cl)nnn2-c2ccc(Cl)cc2)c(F)c1 [Compound 24, 4-chloro-1-(4-chlorophenyl)-5-(2,4-difluorophenyl)-1H-1,2,3-triazole]													pest or weed control at 200 ppm ([1]; Blumeria graminis, 168 h, 200 ppm, 0 = no control relative to controls): 95%; pest or weed control at 200 ppm ([2]; Parastagonospora nodorum, 264 h, 200 ppm, 0 = no control relative to controls): 0%; pest or weed control at 200 ppm ([3]; Alternaria solani, 168 h, 200 ppm, 0 = no control relative to controls): 0%; pest or weed control at 200 ppm ([4]; Zymoseptoria tritici, 504 h, 200 ppm, 0 = no control relative to controls): 67%; pest or weed control at 200 ppm ([5]; Botrytis cinerea, 120 h, 200 ppm, 0 = no control relative to controls): 90%; pest or weed control at 200 ppm ([6]; Puccinia recondita, 168 h, 200 ppm, 0 = no control relative to controls): 28%
Fc1ccc(F)c(-c2c(Cl)ncn2-c2ccc(Cl)cc2)c1Cl [compound 74]	99%	31%	96%	98%	98%	99%							
